Peptide text beside a SMILES is read from it.
Assays:
Assay type in all cases: biochemical
HDAC2 = biological target: T1, HDAC2 (Homo sapiens, UniProt Q92769); test: HDAC2 inhibition, full IC50 measurement (Reaction Biology; fluorogenic p53 peptide RHKK(Ac)AMC)
T1 construct: purchased Reaction Biology Corporation (assay run by the CRO)
Procedure, shortened: (§1)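 Inhibitory peptides were acoustically dispensed with enzyme, then substrate added; 1 h at 30 °C. Developer stopped reaction; plateau endpoint fluorescence (360/460 nm) gave IC50.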

HDAC1 = biological target: T2, HDAC1 (Homo sapiens, UniProt Q13547); test: HDAC1 inhibition, full IC50 measurement (Reaction Biology; fluorogenic p53 peptide RHKK(Ac)AMC); details: t1/t2 replicates
T2 construct: purchased Reaction Biology Corporation (assay run by the CRO)
Procedure, shortened: as §1

HDAC8 = biological target: T3, HDAC8 (Homo sapiens, UniProt Q9BY41); test: HDAC8 inhibition, full IC50 measurement (Reaction Biology; fluorogenic p53 peptide RHKK(Ac)AMC); details: t1/t2 replicates
T3 construct: purchased Reaction Biology Corporation (assay run by the CRO)
T3 sequence (Q9BY41 1-377): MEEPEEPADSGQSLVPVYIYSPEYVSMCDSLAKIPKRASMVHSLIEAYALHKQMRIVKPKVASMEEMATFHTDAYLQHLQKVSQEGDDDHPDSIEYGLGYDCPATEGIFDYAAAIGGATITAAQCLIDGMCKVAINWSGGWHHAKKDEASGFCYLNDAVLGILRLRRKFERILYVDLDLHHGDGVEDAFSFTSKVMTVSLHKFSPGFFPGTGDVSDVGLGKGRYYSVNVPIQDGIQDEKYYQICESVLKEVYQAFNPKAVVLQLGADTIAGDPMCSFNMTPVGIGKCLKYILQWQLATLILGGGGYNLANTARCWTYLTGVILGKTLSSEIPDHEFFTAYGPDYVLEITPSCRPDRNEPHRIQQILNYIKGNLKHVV
Procedure, shortened: as §1

[1] = peptide conc. 1.00E-05 M, listed as des2.2.0_t1
[2] = peptide conc. 1.00E-05 M, listed as des2.2.0_t2
[3] = peptide conc. 1.11E-06 M, listed as des2.2.0_t1
[4] = peptide conc. 1.11E-06 M, listed as des2.2.0_t2
[5] = peptide conc. 1.23E-07 M, listed as des2.2.0_t1
[6] = peptide conc. 1.23E-07 M, listed as des2.2.0_t2
[7] = peptide conc. 1.37E-08 M, listed as des2.2.0_t1
[8] = peptide conc. 1.37E-08 M, listed as des2.2.0_t2
[9] = peptide conc. 1.52E-09 M, listed as des2.2.0_t1
[10] = peptide conc. 1.52E-09 M, listed as des2.2.0_t2
[11] = peptide conc. 3.33E-06 M, listed as des2.2.0_t1
[12] = peptide conc. 3.33E-06 M, listed as des2.2.0_t2
[13] = peptide conc. 3.70E-07 M, listed as des2.2.0_t1
[14] = peptide conc. 3.70E-07 M, listed as des2.2.0_t2
[15] = peptide conc. 4.12E-08 M, listed as des2.2.0_t1
[16] = peptide conc. 4.12E-08 M, listed as des2.2.0_t2
[17] = peptide conc. 4.57E-09 M, listed as des2.2.0_t1
[18] = peptide conc. 4.57E-09 M, listed as des2.2.0_t2
[19] = peptide conc. 5.08E-10 M, listed as des2.2.0_t1
[20] = peptide conc. 5.08E-10 M, listed as des2.2.0_t2

T2 sequence (Q13547 whole entry): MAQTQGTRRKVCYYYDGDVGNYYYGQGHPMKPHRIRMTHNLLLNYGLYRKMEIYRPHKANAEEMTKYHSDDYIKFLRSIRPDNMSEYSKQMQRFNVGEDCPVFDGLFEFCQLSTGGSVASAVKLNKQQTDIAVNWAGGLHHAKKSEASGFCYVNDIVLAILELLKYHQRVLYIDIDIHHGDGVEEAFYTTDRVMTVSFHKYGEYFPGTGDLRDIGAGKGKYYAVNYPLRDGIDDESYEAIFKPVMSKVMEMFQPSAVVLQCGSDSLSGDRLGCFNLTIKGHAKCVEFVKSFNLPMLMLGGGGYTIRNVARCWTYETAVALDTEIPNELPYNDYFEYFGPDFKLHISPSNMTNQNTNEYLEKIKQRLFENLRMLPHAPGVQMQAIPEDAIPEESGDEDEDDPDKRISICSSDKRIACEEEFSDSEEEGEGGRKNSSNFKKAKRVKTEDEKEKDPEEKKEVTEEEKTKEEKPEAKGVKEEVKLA
T1 sequence (Q92769 whole entry): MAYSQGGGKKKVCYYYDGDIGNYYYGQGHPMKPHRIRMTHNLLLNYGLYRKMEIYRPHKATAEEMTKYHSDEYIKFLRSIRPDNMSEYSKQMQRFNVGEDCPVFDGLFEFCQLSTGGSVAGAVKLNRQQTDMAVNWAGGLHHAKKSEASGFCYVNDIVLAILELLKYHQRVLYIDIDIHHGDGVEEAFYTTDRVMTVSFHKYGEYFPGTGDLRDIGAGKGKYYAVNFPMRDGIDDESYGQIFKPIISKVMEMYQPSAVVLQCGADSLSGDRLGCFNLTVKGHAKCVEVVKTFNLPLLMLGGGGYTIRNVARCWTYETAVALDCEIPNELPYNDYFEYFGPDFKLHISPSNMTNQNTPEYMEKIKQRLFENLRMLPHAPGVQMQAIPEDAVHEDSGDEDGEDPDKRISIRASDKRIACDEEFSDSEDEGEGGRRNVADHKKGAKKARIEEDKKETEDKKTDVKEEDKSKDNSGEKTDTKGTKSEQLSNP

Structure (SMILES): CC(C)C[C@H]1NC(=O)[C@H](Cc2c[nH]c3ccccc23)NC(=O)[C@H](CCCCCS)NC(=O)[C@@H](Cc2ccc(O)cc2)NC(=O)[C@@H](C(C)C)NC(=O)[C@H](Cc2c[nH]cn2)NC(=O)CNC(=O)CNC(=O)[C@@H](CO)NC1=O [des2.2.0, SHA-Trp-dLeu-dSer-Gly-Gly-His-dVal-dTyr] (HELM PEPTIDE1{G.G.H.[dV].[dY].[O=C([C@H](CCCCCS)N[*:1])[*:2]].W.[dL].[dS]}$PEPTIDE1,PEPTIDE1,1:R1-9:R2$$$V2.0)
- HDAC2 activity raw data (signal) (HDAC2; Conc. 1.00E-05 M, t1): 686926
- HDAC2 activity raw data (signal) (HDAC2; Conc. 1.00E-05 M, t2): 755168
- HDAC2 activity raw data (signal) (HDAC2; Conc. 1.11E-06 M, t1): 808545
- HDAC2 activity raw data (signal) (HDAC2; Conc. 1.11E-06 M, t2): 1100762
- HDAC2 activity raw data (signal) (HDAC2; Conc. 1.23E-07 M, t1): 837329
- HDAC2 activity raw data (signal) (HDAC2; Conc. 1.23E-07 M, t2): 1005687
- HDAC2 activity raw data (signal) (HDAC2; Conc. 1.37E-08 M, t1): 715440
- HDAC2 activity raw data (signal) (HDAC2; Conc. 1.37E-08 M, t2): 821926
- HDAC2 activity raw data (signal) (HDAC2; Conc. 1.52E-09 M, t1): 554743
- HDAC2 activity raw data (signal) (HDAC2; Conc. 1.52E-09 M, t2): 656599
- HDAC2 activity raw data (signal) (HDAC2; Conc. 3.33E-06 M, t1): 690169
- HDAC2 activity raw data (signal) (HDAC2; Conc. 3.33E-06 M, t2): 996724
- HDAC2 activity raw data (signal) (HDAC2; Conc. 3.70E-07 M, t1): 822571
- HDAC2 activity raw data (signal) (HDAC2; Conc. 3.70E-07 M, t2): 1061380
- HDAC2 activity raw data (signal) (HDAC2; Conc. 4.12E-08 M, t1): 840443
- HDAC2 activity raw data (signal) (HDAC2; Conc. 4.12E-08 M, t2): 955487
- HDAC2 activity raw data (signal) (HDAC2; Conc. 4.57E-09 M, t1): 679123
- HDAC2 activity raw data (signal) (HDAC2; Conc. 4.57E-09 M, t2): 728514
- HDAC2 activity raw data (signal) (HDAC2; Conc. 5.08E-10 M, t1): 632244
- HDAC2 activity raw data (signal) (HDAC2; Conc. 5.08E-10 M, t2): 668167
- HDAC1 activity raw data (signal) (HDAC1; [1]): 393754
- HDAC1 activity raw data (signal) (HDAC1; [2]): 398456
- HDAC1 activity raw data (signal) (HDAC1; [3]): 771529
- HDAC1 activity raw data (signal) (HDAC1; [4]): 714587
- HDAC1 activity raw data (signal) (HDAC1; [5]): 815475
- HDAC1 activity raw data (signal) (HDAC1; [6]): 811874
- HDAC1 activity raw data (signal) (HDAC1; [7]): 879707
- HDAC1 activity raw data (signal) (HDAC1; [8]): 762845
- HDAC1 activity raw data (signal) (HDAC1; [9]): 835131
- HDAC1 activity raw data (signal) (HDAC1; [10]): 788807
- HDAC1 activity raw data (signal) (HDAC1; [11]): 631956
- HDAC1 activity raw data (signal) (HDAC1; [12]): 567009
- HDAC1 activity raw data (signal) (HDAC1; [13]): 777508
- HDAC1 activity raw data (signal) (HDAC1; [14]): 771678
- HDAC1 activity raw data (signal) (HDAC1; [15]): 776525
- HDAC1 activity raw data (signal) (HDAC1; [16]): 821518
- HDAC1 activity raw data (signal) (HDAC1; [17]): 820973
- HDAC1 activity raw data (signal) (HDAC1; [18]): 805068
- HDAC1 activity raw data (signal) (HDAC1; [19]): 825935
- HDAC1 activity raw data (signal) (HDAC1; [20]): 859992
- HDAC8 activity raw data (signal) (HDAC8; [1]): 365553
- HDAC8 activity raw data (signal) (HDAC8; [2]): 330727
- HDAC8 activity raw data (signal) (HDAC8; [3]): 850929
- HDAC8 activity raw data (signal) (HDAC8; [4]): 824009
- HDAC8 activity raw data (signal) (HDAC8; [5]): 979654
- HDAC8 activity raw data (signal) (HDAC8; [6]): 1006503
- HDAC8 activity raw data (signal) (HDAC8; [7]): 1072008
- HDAC8 activity raw data (signal) (HDAC8; [8]): 1101244
- HDAC8 activity raw data (signal) (HDAC8; [9]): 927307
- HDAC8 activity raw data (signal) (HDAC8; [10]): 984830
- HDAC8 activity raw data (signal) (HDAC8; [11]): 572630
- HDAC8 activity raw data (signal) (HDAC8; [12]): 528648
- HDAC8 activity raw data (signal) (HDAC8; [13]): 865883
- HDAC8 activity raw data (signal) (HDAC8; [14]): 851036
- HDAC8 activity raw data (signal) (HDAC8; [15]): 959123
- HDAC8 activity raw data (signal) (HDAC8; [16]): 1003485
- HDAC8 activity raw data (signal) (HDAC8; [17]): 938538
- HDAC8 activity raw data (signal) (HDAC8; [18]): 927098
- HDAC8 activity raw data (signal) (HDAC8; [19]): 862623
- HDAC8 activity raw data (signal) (HDAC8; [20]): 898356

Source: publication PMC8185074, “Anchor extension: a structure-guided approach to design cyclic peptides targeting enzyme active sites” (Nature Communications, 2021)
